Data: patent US11447466B2, “Substituted indole compounds useful as inhibitors of TLR7/8/9” (BRISTOL-MYERS SQUIBB COMPANY, priority 2017, dated 2022)

Key:
Assay type in all cases: cell-based
[1] = target: T1, human TLR7 (Homo sapiens, UniProt Q9NYK1); assay: TLR7 inhibition reporter assay (HEK-Blue SEAP reporter, gardiquimod stimulation); conditions: HEK-Blue cells overexpressing human TLR7, SEAP reporter, gardiquimod 7.5 μM, 22 hour incubation
T1 construct: host or cells: HEK-Blue cells
T1 sequence (Q9NYK1 27-1049): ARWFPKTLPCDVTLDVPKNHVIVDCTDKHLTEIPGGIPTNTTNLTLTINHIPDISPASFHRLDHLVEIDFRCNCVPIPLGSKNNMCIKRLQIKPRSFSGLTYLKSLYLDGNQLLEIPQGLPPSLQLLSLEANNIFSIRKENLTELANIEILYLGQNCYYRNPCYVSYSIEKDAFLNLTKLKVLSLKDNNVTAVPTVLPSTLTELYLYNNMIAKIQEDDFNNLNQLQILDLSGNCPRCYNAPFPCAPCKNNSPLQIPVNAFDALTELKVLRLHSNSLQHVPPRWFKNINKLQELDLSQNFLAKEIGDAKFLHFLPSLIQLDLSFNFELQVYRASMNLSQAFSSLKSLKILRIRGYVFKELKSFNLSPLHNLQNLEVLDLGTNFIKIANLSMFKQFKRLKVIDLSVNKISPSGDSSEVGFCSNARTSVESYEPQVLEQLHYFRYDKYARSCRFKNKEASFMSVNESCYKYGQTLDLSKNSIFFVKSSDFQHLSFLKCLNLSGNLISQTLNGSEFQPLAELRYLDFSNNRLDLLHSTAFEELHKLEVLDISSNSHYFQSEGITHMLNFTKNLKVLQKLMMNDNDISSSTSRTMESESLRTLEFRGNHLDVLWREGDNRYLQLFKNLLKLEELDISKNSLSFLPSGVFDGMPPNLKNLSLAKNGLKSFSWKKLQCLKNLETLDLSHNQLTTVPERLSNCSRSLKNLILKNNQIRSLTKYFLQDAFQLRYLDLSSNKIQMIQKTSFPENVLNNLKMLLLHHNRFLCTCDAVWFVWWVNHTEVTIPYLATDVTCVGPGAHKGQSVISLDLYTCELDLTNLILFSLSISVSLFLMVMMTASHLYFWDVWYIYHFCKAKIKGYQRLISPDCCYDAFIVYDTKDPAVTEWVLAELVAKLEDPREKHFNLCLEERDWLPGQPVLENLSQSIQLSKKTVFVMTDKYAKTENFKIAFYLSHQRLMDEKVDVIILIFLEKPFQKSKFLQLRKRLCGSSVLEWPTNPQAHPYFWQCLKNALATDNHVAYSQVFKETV
How it was run: (§1)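 Dose–response from 0.05 nM to 50 μM was run in HEK-Blue human TLR7, TLR8 and TLR9 reporter cells. After 30 min at room temperature with compound, ligand was added (TLR7 gardiquimod 7.5 μM; TLR8 R848 15.9 μM; TLR9 ODN2006 5 nM) and SEAP measured next day, at 22 h.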

[2] = target: T2, human TLR8 (Homo sapiens, UniProt Q9NR97); assay: TLR8 inhibition reporter assay (HEK-Blue SEAP reporter, R848 stimulation); conditions: HEK-Blue cells overexpressing human TLR8, SEAP reporter, R848 15.9 μM, 22 hour incubation
T2 construct: host or cells: HEK-Blue cells
T2 sequence (Q9NR97 27-1041): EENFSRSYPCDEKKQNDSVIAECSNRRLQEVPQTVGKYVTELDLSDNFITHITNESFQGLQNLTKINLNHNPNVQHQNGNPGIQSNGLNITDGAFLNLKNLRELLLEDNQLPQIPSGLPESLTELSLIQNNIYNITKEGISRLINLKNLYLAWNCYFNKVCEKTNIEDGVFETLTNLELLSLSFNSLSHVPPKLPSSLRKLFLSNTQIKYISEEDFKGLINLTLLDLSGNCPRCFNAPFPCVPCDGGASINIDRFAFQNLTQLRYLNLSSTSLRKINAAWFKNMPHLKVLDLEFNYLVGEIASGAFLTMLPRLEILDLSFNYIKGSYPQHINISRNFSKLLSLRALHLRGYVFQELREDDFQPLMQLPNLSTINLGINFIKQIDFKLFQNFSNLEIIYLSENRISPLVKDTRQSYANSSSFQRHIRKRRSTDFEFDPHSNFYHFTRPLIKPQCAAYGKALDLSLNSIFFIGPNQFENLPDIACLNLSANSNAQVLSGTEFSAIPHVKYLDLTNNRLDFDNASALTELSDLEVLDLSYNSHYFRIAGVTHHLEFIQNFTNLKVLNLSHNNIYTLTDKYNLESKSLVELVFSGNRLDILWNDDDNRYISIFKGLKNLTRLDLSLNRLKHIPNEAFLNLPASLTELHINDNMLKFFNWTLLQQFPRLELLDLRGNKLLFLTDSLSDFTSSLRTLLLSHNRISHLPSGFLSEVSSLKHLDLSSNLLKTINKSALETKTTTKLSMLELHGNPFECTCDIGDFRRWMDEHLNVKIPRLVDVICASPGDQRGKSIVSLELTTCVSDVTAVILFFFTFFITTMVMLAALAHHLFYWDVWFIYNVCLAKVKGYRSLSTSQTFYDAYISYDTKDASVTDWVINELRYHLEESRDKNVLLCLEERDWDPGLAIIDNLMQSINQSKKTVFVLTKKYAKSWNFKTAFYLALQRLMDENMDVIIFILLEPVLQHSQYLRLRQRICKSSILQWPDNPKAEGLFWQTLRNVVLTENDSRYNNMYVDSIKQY
How it was run: as §1

[3] = target: T3, human TLR9 (Homo sapiens, UniProt Q9NR96); assay: TLR9 inhibition reporter assay (HEK-Blue SEAP reporter, ODN2006 stimulation); conditions: HEK-Blue cells overexpressing human TLR9, SEAP reporter, ODN2006 5 nM, 22 hour incubation
T3 construct: host or cells: HEK-Blue cells
T3 sequence (Q9NR96 26-1032): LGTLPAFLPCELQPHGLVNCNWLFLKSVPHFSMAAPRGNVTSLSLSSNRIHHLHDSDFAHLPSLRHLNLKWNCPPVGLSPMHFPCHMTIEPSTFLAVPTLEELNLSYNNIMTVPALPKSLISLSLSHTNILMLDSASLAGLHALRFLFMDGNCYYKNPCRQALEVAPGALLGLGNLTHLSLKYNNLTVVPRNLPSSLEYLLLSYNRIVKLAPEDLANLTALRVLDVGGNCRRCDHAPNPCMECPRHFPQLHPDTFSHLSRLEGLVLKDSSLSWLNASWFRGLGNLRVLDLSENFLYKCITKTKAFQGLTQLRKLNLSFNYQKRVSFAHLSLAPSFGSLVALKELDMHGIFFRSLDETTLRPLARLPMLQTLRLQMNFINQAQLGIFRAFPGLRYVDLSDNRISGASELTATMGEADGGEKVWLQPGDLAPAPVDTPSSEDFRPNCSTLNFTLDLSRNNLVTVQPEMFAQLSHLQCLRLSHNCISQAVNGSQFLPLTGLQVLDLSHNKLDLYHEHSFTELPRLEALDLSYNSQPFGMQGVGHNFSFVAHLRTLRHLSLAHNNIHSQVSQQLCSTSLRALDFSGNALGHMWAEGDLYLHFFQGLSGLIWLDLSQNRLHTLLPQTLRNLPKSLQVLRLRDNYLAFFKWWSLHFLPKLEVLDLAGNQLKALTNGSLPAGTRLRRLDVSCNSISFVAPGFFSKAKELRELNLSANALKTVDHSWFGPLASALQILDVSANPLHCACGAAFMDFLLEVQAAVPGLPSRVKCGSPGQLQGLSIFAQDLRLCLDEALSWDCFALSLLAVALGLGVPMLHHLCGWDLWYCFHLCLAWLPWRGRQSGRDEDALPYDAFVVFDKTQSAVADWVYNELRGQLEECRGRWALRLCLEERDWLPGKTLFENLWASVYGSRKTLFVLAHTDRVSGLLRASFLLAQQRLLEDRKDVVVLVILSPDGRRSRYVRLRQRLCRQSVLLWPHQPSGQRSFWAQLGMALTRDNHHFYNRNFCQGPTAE
How it was run: as §1

Compound | IC50 [1] [nM] | IC50 [2] [nM] | IC50 [3] [nM]
CC(C)c1c(-c2cn(C)c(=O)n(C)c2=O)[nH]c2ccc(C3CCNCC3)cc12 [Example 21, 5-(3-isopropyl-5-(piperidin-4-yl)-1H-indol-2-yl)-1,3-dimethylpyrimidine-2,4(1H,3H)-dione] | 105 | 263 | 6540
C=C(C)c1cc(-c2[nH]c3ccc(C4CCNCC4)cc3c2C(C)C)cn(C)c1=O [Example 51, 5-(3-isopropyl-5-(piperidin-4-yl)-1H-indol-2-yl)-1-methyl-3-(prop-1-en-2-yl)pyridin-2(1H)-one] | 10.9 | 30.6 | 2580
CCCN1CCC(c2ccc3[nH]c(-c4cc(-c5ccncc5)c(=O)n(C)c4)c(C(C)C)c3c2)CC1 [Example 336, 5-(3-isopropyl-5-(1-propylpiperidin-4-yl)-1H-indol-2-yl)-1-methyl-[3,4′-bipyridin]-2(1H)-one] | 10.2 | 1.2 | 553
Cc1c(-c2[nH]c3ccc(C4CCN(C5COC5)CC4)cc3c2C(C)C)cc(C#N)c(=O)n1C [Example 219, 5-(3-isopropyl-5-(1-(oxetan-3-yl)piperidin-4-yl)-1H-indol-2-yl)-1,6-dimethyl-2-oxo-1,2-dihydropyridine-3-carbonitrile] | 48 | 9.1 | 22300
CC(C)c1c(-c2cc(-c3cncnc3)c(=O)n(C)c2)[nH]c2ccc(C3CCN(CC4CCOC4)CC3)cc12 (stereo not drawn) [Example 257, 5-(3-isopropyl-5-(1-((tetrahydrofuran-3-yl)methyl)piperidin-4-yl)-1H-indol-2-yl)-1-methyl-3-(pyrimidin-5-yl)pyridin-2(1H)-one] | 15.6 | 1.1 | 1980
CC(=O)Nc1cccc(-c2cc(-c3[nH]c4ccc(C5CCNCC5)cc4c3C(C)C)cn(C)c2=O)c1 [Example 60, N-(3-(5-(3-isopropyl-5-(piperidin-4-yl)-1H-indol-2-yl)-1-methyl-2-oxo-1,2-dihydropyridin-3-yl)phenyl)acetamide] | 90.3 | 211 | 3060

Now from value to compound:

IC50 [1] [nM] | IC50 [2] [nM] | IC50 [3] [nM] | Compound
50.5 | 239 | 8730 | CNC(=O)CN1CCC(c2ccc3[nH]c(-c4cc(C)c(=O)n(CC(C)C)c4)c(C(C)C)c3c2)CC1 [Example 161, 2-(4-(2-(1-isobutyl-5-methyl-6-oxo-1,6-dihydropyridin-3-yl)-3-isopropyl-1H-indol-5-yl)piperidin-1-yl)-N-methylacetamide]
245 | 33.4 | 16200 | CNC(=O)CN1CCC(c2ccc3[nH]c(-c4nn(C)c(=O)c(C)c4C)c(C(C)C)c3c2)CC1 [Example 131, 2-(4-(3-isopropyl-2-(1,4,5-trimethyl-6-oxo-1,6-dihydropyridazin-3-yl)-1H-indol-5-yl)piperidin-1-yl)-N-methylacetamide]
2.4 | 5.9 | 529 | CCCN1CCC(c2ccc3[nH]c(-c4cc(-c5ccc(NC(C)=O)nc5)c(=O)n(C)c4)c(C(C)C)c3c2)CC1 [Example 335, N-(5′-(3-isopropyl-5-(1-propylpiperidin-4-yl)-1H-indol-2-yl)-1′-methyl-2′-oxo-1′,2′-dihydro-[3,3′-bipyridin]-6-yl)acetamide]
1.4 | 4.6 | 16600 | Cc1c(-c2[nH]c3ccc(C4CCN(CC(=O)N(C)C)CC4)cc3c2C(C)C)cn(C)c(=O)c1Cl [Example 152, 2-(4-(2-(5-chloro-1,4-dimethyl-6-oxo-1,6-dihydropyridin-3-yl)-3-isopropyl-1H-indol-5-yl)piperidin-1-yl)-N,N-dimethylacetamide]
19.3 | 7.2 | 3580 | COc1c(C)c(-c2[nH]c3ccc(C4CCN(CC(C)(C)O)CC4)cc3c2C(C)C)cn(C)c1=O [Example 317, 5-(5-(1-(2-hydroxy-2-methylpropyl)piperidin-4-yl)-3-isopropyl-1H-indol-2-yl)-3-methoxy-1,4-dimethylpyridin-2(1H)-one]
12.3 | 118 | 3890 | Cc1cc(-c2[nH]c3ccc(C4CCN(CC(=O)N(C)C)CC4)cc3c2C(C)C)cn(CC(C)C)c1=O [Example 163, 2-(4-(2-(1-isobutyl-5-methyl-6-oxo-1,6-dihydropyridin-3-yl)-3-isopropyl-1H-indol-5-yl)piperidin-1-yl)-N,N-dimethylacetamide]
3.1 | 5.7 | 2560 | Cc1cc(-c2[nH]c3ccc(C4CCN(C5CCCCC5)CC4)cc3c2C(C)C)cn(C)c1=O [Example 87, 5-(5-(1-cyclohexylpiperidin-4-yl)-3-isopropyl-1H-indol-2-yl)-1,3-dimethylpyridin-2(1H)-one]
16.5 | 26.9 | 547 | Cc1cc(-c2[nH]c3ccc(C4CCN(C(=O)C[C@H]5CCCN5)CC4)cc3c2C(C)C)cn(C)c1=O [Example 306, (R)-5-(3-isopropyl-5-(1-(2-(pyrrolidin-2-yl)acetyl)piperidin-4-yl)-1H-indol-2-yl)-1,3-dimethylpyridin-2(1H)-one]
